{"source": "paper PMC3755965", "about": "“A Small Peptide with Therapeutic Potential for Inflammatory Acne Vulgaris” (PLoS ONE, 2013)", "key": {"[1]": {"tested_on": "S. epidermidis 09A3726", "details": "LB broth, aerobic, 37°C, 24 or 48 h, A600; mean of three independent experiments in duplicates; ND = no detectable activity", "protocol": "(§1) The strains of P. acnes were cultured in brain heart infusion (BHI) broth (HKM, Guangzhou, China) with 1% glucose at 37°C under an anaerobic atmosphere using MGC Anaeropack systems (Mitsubishi, Gas Chemical Co., Inc, Japan), respectively. […] S. epidermidis (09A3726 and 09B2490) and S. aureus (ATCC 2592) were grown in LB (Luria-Bertani) broth as our previous report.\n(§2) Briefly, samples were prepared as a stock solution in 0.9% salt water at a series of concentration. 890 µl special broth (BHI broth for P. acnes, LB broth for S. epidermidis and S. aureus), 100 µl bacterial suspension (10^8 CFU/ml) and 10 µl test sample were put together in the test tube under anaerobic conditions at 37°C for 72 h for P. acnes and under aerobic conditions at 37°C for 24 or 48 h for S. epidermidis and S. aureus. An absorbance at 600 nm was measured by a microplate reader to estimate bacterial growth. The MIC was defined as the lowest concentration of test sample completely inhibiting microorganism’s growth."}, "[2]": {"tested_on": "P. acnes ATCC6919", "details": "BHI broth, anaerobic, 37°C, 72 h, A600; mean of three independent experiments in duplicates; ND = no detectable activity", "protocol": "as §1, §2"}, "[3]": {"tested_on": "P. acnes ATCC11827", "details": "BHI broth, anaerobic, 37°C, 72 h, A600; mean of three independent experiments in duplicates; ND = no detectable activity", "protocol": "as §1, §2"}, "[4]": {"tested_on": "P. acnes (IS, DR), clinically isolated strain with clindamycin resistance", "details": "clindamycin-resistant clinical isolate; BHI broth, anaerobic, 37°C, 72 h, A600; mean of three independent experiments in duplicates; ND = no detectable activity", "protocol": "as §1, §2"}, "[5]": {"tested_on": "S. epidermidis 09B2490", "details": "LB broth, aerobic, 37°C, 24 or 48 h, A600; mean of three independent experiments in duplicates", "protocol": "as §1, §2"}, "[6]": {"tested_on": "S. aureus 09B2499", "details": "LB broth, aerobic, 37°C, 24 or 48 h, A600; mean of three independent experiments in duplicates"}, "[7]": {"tested_on": "human red blood cells", "details": "up to 320 µg/ml, 37°C, 30 min, A540, relative to 1% Triton X-100, mean of five experiments", "protocol": "Hemolysis assay was undertaken using human red blood cells in liquid medium as our previous reports. Serial dilutions of testing sample were incubated with human red cells at 37°C. After the incubation for 30 min, the cells were centrifuged and the absorbance in the supernatant was measured at 540 nm. Maximum hemolysis was determined by adding 1% Triton X-100 to a sample of cells. Hemolysis of testing samples was calculated as the percentage of cytotoxicity of Triton X-100."}, "[8]": {"assay": "Effect of human plasma on antibacterial activity (inhibition zone)", "type": "in vitro ADME", "details": "100 µM, 37°C, inhibition zone on P. acnes ATCC6919, S. epidermidis 09A3726, S. aureus 09B2499, three experiments", "protocol": "LZ1 or human cathelicidin antimicrobial peptide LL-37 (control) was mixed with human plasma (final concentration 100 µM) for 0, 0.5, 1, 2, 4, 6 and 8 hours at 37°C, respectively. Residual antibacterial activity was evaluated by using 10 µl aliquot of the mixture to measure inhibitory zone on bacterial growth on BHI or LB broth containing 0.7% agar as previously described. The diameters of inhibition zones were recorded after 72-hour incubation for P. acnes and 24-hour incubation for S. epidermidis and S. aureus, respectively."}, "[9]": {"tested_on": "Human HaCaT keratinocyte cells", "details": "20 to 200 µg/ml, 24-h treatment, MTT, A570, mean of five experiments", "description": "Human HaCaT keratinocyte cells (1×10^5 cells/ml, obtained from Cell Bank of Kunming Institute of Zoology, Chinese Academy of Sciences) were cultured in 96-well plates with Dulbecco’s modified Eagle’s medium (DMEM, Gibco) containing 10% fetal calf serum and penicillin (100 u/ml)-streptomycin (100 mg/ml) at 37°C in a humidified 5% CO2 atmosphere. Cell viability was evaluated by conventional 3-(4, 5-dimethyl-2-thiazolyl)-2, 5-diphenyl-2H-tetrazolium bromide (MTT) reduction assays. After a 24-h treatment by testing sample, 20 µl of MTT (5 mg/ml) was added to each well. The MTT solution was then removed and 200 µl dimethyl sulfoxide (DMSO) was added to solubilize the MTT-formazan cristals in living cells. The absorbance at 570 nm of the resulting solution was measured. The experiments were performed in triplicate."}, "[10]": {"tested_on": "IL-1β", "assay": "IL-1β in ear homogenate, ELISA", "type": "in vivo, Kunming mice", "protocol": "(§3) Ears of Kunming mice were injected with live P. acnes (ATCC 6919) as described above. The ear was excised on day 1 to day 5 after bacterial injection respectively, and then homogenized in 0.9% salt water (1 ml per ear) with a hand tissue grinder. The supernatant was collected after the centrifugation at 2000 × g for 10 min and then was used for cytokine measurement. The concentration of TNF-α and IL-1β was measured by using enzyme-linked immunosorbent assay kits (Excell Bio, Shanghai, China)."}, "[11]": {"tested_on": "infiltrated inflammatory cells", "assay": "Histological check of mouse ears (HE stain)", "type": "in vivo, Kunming mice", "details": "24 h after P. acnes challenge, epicutaneous 0.2% gel, in words", "text": "Ears of Kunming mice were excised and fixed in neutral-buffered 10% formalin solution and embedded in paraffin by routine procedures. The slides were cut at approximately 4 µm and stained routinely with haematoxylin and eosin (HE). Images were obtained using a Nikon Eclipse 80i microscope (Nikon, Japan)."}, "[12]": {"tested_on": "P. acnes (ATCC6919)-induced ear swelling", "assay": "P. acnes-induced ear swelling in mice", "type": "in vivo, Kunming mice", "details": "mean of four experiments"}, "[13]": {"tested_on": "TNF-α", "assay": "TNF-α in ear homogenate, ELISA", "type": "in vivo, Kunming mice", "details": "day 1 to day 5, epicutaneous 0.2% gel, in words", "protocol": "as §3"}, "[14]": {"tested_on": "P. acnes (ATCC6919)", "assay": "P. acnes colonization within mouse ear (CFU count)", "type": "in vivo, Kunming mice", "details": "for P. acnes colonized within the ear: mean of four experiments", "protocol": "As described previously, P. acnes (ATCC6919) was grown to the exponential-phase in BHI broth and then centrifuged at 1000 g for 10 min. The bacterium pellet was then washed twice and re-suspended in 0.9% salt water (5×10^8 CFU/ml). Kunming mice (20 ± 2 g) were anesthetised by intraperitoneal (IP) administration of ketamine (50 mg/kg) and xylazine (15 mg/kg), and then 20 µl P. acnes solution was intradermally injected into left ears of the mice. Right ears received the same volume of 0.9% salt water. Placebo or 0.2% LZ1 gel (Polyethylene Glycol (PEG) 400: PEG 4000, 1:1) was applied on the surface of right ear skin after injection with P. acnes or saline. […] Ear thickness after 24 h bacterial injection was measured using a micro caliper.\nTo determine P. acnes number in the ear, the left ear was cut off after 24 h bacterial injection and the mice were sacrificed immediately by cervical dislocation. The ears were wiped to remove gel and then homogenized in 0.9% salt water (1 ml per ear) with a hand tissue grinder. CFUs of P. acnes in the ear were enumerated by plating serial dilutions of the homogenate on BHI plates and the bacterial numbers were counted after 72 h incubation under anaerobic conditions at 37°C.\nTo further investigate the therapeutical effect, the increase in ear thickness and the P. acnes number in the ear after bacterial injection were determined continuously on day 2 to day 5 as described above. […] All the experimental protocols to use animals were approved by the Animal Care and Use Committee at Kunming Institute of Zoology, Chinese Academy of Sciences."}}, "note": "Where a SMILES comes first, the peptide text is derived from it.", "data": [{"molecule": "CC(C)[C@H](N)C(=O)N[C@@H](CCCCN)C(=O)N[C@@H](CCCNC(=N)N)C(=O)N[C@@H](Cc1c[nH]c2ccccc12)C(=O)N[C@@H](CCCCN)C(=O)N[C@@H](CCCCN)C(=O)N[C@@H](Cc1c[nH]c2ccccc12)C(=O)N[C@@H](Cc1c[nH]c2ccccc12)C(=O)N[C@@H](CCCNC(=N)N)C(=O)N[C@@H](CCCCN)C(=O)N[C@@H](Cc1c[nH]c2ccccc12)C(=O)N[C@@H](CCCCN)C(=O)N[C@@H](CCCCN)C(=O)N[C@@H](Cc1c[nH]c2ccccc12)C(=O)N[C@H](C(N)=O)C(C)C", "note": "[LZ1] (H-VKRWKKWWRKWKKWV-NH2)", "values": [{"measurement": "MIC", "setting": "[1]", "result": 4.7, "unit": "µg/mL"}, {"measurement": "MIC", "setting": "[2]", "result": 0.6, "unit": "µg/mL"}, {"measurement": "MIC", "setting": "[3]", "result": 0.6, "unit": "µg/mL"}, {"measurement": "MIC", "setting": "[4]", "result": 0.6, "unit": "µg/mL"}, {"measurement": "MIC", "setting": "[5]", "result": 2.3, "unit": "µg/mL"}, {"measurement": "MIC", "setting": "[6]", "result": 2.3, "unit": "µg/mL"}, {"measurement": "hemolytic activity", "setting": "[7]", "result": "no more than 5.2%"}, {"measurement": "antibacterial activity after incubation with human plasma", "setting": "[8]; 8 hours", "result": "could not be significantly affected"}, {"measurement": "effects on cell viabilities (cytotoxicity)", "setting": "[9]", "result": "no more than 5.6%"}]}, {"molecule": "CCC[C@@H]1C[C@@H](C(=O)N[C@@H]([C@H]2O[C@H](SC)[C@H](OP(=O)(O)O)[C@@H](O)[C@H]2O)[C@H](C)Cl)N(C)C1", "note": "[clindamycin, clindamycin phosphate]", "values": [{"measurement": "IL-1β concentration in mouse ear", "setting": "[10]; day 1, 1 ml saline per ear, vehicle 483, three experiments", "result": 346, "unit": "pg/mL"}, {"measurement": "IL-1β concentration in mouse ear", "setting": "[10]; day 2, 1 ml saline per ear, vehicle 221, three experiments", "result": 83, "unit": "pg/mL"}, {"measurement": "IL-1β concentration in mouse ear", "setting": "[10]; day 3, 1 ml saline per ear, vehicle 48, three experiments", "result": 43, "unit": "pg/mL"}, {"measurement": "IL-1β concentration in mouse ear", "setting": "[10]; day 4, 1 ml saline per ear, vehicle 30, three experiments", "result": 45, "unit": "pg/mL"}, {"measurement": "IL-1β concentration in mouse ear", "setting": "[10]; day 5, 1 ml saline per ear, vehicle 41, three experiments", "result": 46, "unit": "pg/mL"}, {"measurement": "number of infiltrated inflammatory cells", "setting": "[11]", "result": "decreased infiltrated inflammatory cells"}, {"measurement": "ear thickness, % of the control (un-challenged)", "setting": "[12]; day 1 after P. acnes injection, 0.2% gel epicutaneous", "result": 147, "unit": "%"}, {"measurement": "ear thickness, % of the control (un-challenged)", "setting": "[12]; day 2, 0.2% gel epicutaneous once per day", "result": 145, "unit": "%"}, {"measurement": "ear thickness, % of the control (un-challenged)", "setting": "[12]; day 3, 0.2% gel epicutaneous once per day", "result": 130, "unit": "%"}, {"measurement": "ear thickness, % of the control (un-challenged)", "setting": "[12]; day 4, 0.2% gel epicutaneous once per day", "result": 125, "unit": "%"}, {"measurement": "ear thickness, % of the control (un-challenged)", "setting": "[12]; day 5, 0.2% gel epicutaneous once per day", "result": 105, "unit": "%"}, {"measurement": "effect on TNF-α secretion induced by P. acnes challenge", "setting": "[13]", "result": "no inhibitory effect"}, {"measurement": "P. acnes colonized within the ear", "setting": "[14]; Day 1, 0.2% gel epicutaneous", "result": "360±77 10^3 CFU per ear"}, {"measurement": "P. acnes colonized within the ear", "setting": "[14]; Day 2, 0.2% gel epicutaneous once per day", "result": "32±4.1 10^3 CFU per ear"}, {"measurement": "P. acnes colonized within the ear", "setting": "[14]; Day 3, 0.2% gel epicutaneous once per day", "result": "14±1.7 10^3 CFU per ear"}, {"measurement": "P. acnes colonized within the ear", "setting": "[14]; Day 4, 0.2% gel epicutaneous once per day", "result": "6±0.5 10^3 CFU per ear"}, {"measurement": "P. acnes colonized within the ear", "setting": "[14]; Day 5, 0.2% gel epicutaneous once per day", "result": "1.5±0.1 10^3 CFU per ear"}, {"measurement": "reduction in the number of P. acnes colonized within the ear", "setting": "[14]; day 2, versus vehicle", "result": 58.9, "unit": "%"}, {"measurement": "reduction in the number of P. acnes colonized within the ear", "setting": "[14]; day 3, versus vehicle", "result": 58.8, "unit": "%"}, {"measurement": "reduction in the number of P. acnes colonized within the ear", "setting": "[14]; day 4, versus vehicle", "result": 71.4, "unit": "%"}, {"measurement": "reduction in the number of P. acnes colonized within the ear", "setting": "[14]; day 5, versus vehicle", "result": 50, "unit": "%"}]}, {"molecule": "LL-37: human cathelicidin antimicrobial peptide LL-37 (control)", "values": [{"measurement": "antibacterial activity after incubation with human plasma", "setting": "[8]; 1 hour", "result": "completely lost its antibacterial activity"}]}]}
